According to publication PMC4188250 (Biochemistry, 2014):
Read-outs that look alike come from different tables or passages of the source.

Legend:
[1] = target: T1, Cytochrome P450 4A11 (Homo sapiens, UniProt Q02928); test: UV-visible spectral binding titration
T1 sequence (Q02928 5-519): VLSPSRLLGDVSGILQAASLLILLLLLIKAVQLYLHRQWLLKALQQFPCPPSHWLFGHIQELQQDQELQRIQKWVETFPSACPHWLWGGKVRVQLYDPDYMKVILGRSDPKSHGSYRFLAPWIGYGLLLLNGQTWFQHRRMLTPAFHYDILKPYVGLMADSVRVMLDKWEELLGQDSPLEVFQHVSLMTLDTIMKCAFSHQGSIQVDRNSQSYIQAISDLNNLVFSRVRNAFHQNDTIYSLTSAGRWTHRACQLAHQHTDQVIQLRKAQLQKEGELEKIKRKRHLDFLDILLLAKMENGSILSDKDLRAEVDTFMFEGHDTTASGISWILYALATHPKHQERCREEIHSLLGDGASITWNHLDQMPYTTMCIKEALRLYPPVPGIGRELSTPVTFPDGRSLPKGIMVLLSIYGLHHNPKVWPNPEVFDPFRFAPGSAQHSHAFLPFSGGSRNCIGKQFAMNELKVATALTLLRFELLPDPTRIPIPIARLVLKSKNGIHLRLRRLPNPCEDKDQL

[2] = target: T1, Cytochrome P450 4A11; test: UV-visible spectral binding titration; remark: listed apart in the source

O=C(O)CCCCCCCCCCCO [12-OH lauric acid]
Kd [1]: 5.1 ± 2.1 µM

CCCCCCCCCCCC(=O)O [lauric acid, dodecanoic acid]
Kd [2]: 6.7 ± 0.3 µM
